Tests used:
[1] = test system: MCF-7 cell line; experiment: MTT cytotoxicity assay, MCF-7; type: cell-based, human; settings: for IC50: Homo sapiens, MCF7, MTT assay, mean ± SD of three experiments; for fold more potent than sunitinib, MCF-7: ratio of IC50 to sunitinib
Method: (§1) The cytotoxic activities against breast MCF-7 and liver HepG2 cancer cell lines for all the synthesized compounds 3a,b–17a,b were evaluated by MTT-based cytotoxicity assay. Sunitinib was selected as a reference standard in this study, and the results are presented as IC50 in Table 1.
(§2) The anticancer activities of the target compounds 3a,b–17a,b were quantitatively assessed using the MTT protocol against the MCF-7 and HepG2 cell lines, as described in the Supplementary Materials. […]
(§3) 4.2. Biological investigation
(§4) 4.2.1. In vitro cytotoxic activity assay
(§5) Citation: Abdelgawad, M.A.; Cell Line cells were obtained from the American Type Culture Collection. The cells Hayallah A.M.; Bukhari S.N.A.; were cultured using DMEM (Invitrogen/Life Technologies) supplemented with 10% FBS Musa A.; Elmowafy M.; (Hyclone,), 10 ug/ml of insulin (Sigma), and 1% penicillin‐streptomycin. All of the other Abdel‐Rahman, H.M.; chemicals and reagents were from Sigma or Invitrogen. Plate cells (cells density 1.2 – 1.8 Abd El‐Gaber, M.K. Design, × 10,000 cells/well) in a volume of 100μl complete growth medium + 100 μl of the tested Synthesis, Molecular Modeling, and compound per well in a 96‐well plate for 24 hours before the MTT assay. The tested com‐ Anticancer Evaluation of New pounds were dissolved in DMSO just before the test.
(§6) VEGFR‐2 Inhibitors Based on the Indolin‐2‐One Scaffold. 4.2.1.1. Cell culture protocol
(§7) Pharmaceuticals 2022, 15, x. The culture medium was removed to a centrifuge tube. The cell layer was briefly https://doi.org/10.3390/xxxxx rinsed with 5 mL of 0.25% (w/v) Trypsin and 3 mL of 0.53 mM EDTA solution to remove Academic Editor(s): Mary J. Meegan all traces of serum which contains Trypsin inhibitor. Next, 2.0 to 3.0 ml of Trypsin EDTA Received: 18 October 2022 solution was added to the flask and cells were observed under an inverted microscope Accepted: 9 November 2022 until the cell layer was dispersed (usually within 5 to 15 minutes). Then, 6.0 to 8.0 mL of Published: 14 November 2022 complete growth medium was added and cells aspirated by gently pipetting. The cell suspension was transferred to the centrifuge tube with the medium and cells from step 1, Publisher’s Note: MDPI stays neu‐and centrifuged at approximately 125 xg for 5 to 10 minutes. The supernatant was dis‐ tral with regard to jurisdictional carded and the cell pellet was suspended in fresh growth medium. Appropriate aliquots claims in published maps and institu‐ of the cell suspension were added to new culture vessels and incubated at 37°C for 24 hrs. tional affiliations. After treatment of cells with the serial concentrations of the compound to be tested, incu‐ bation was carried out for 48 h at 37 °C. The plates were examined under an inverted mi‐ croscope and proceeded for the MTT assay […]
(§8) Submitted for possible open access 4.2.1.2. […]
(§9) HepG‐2) were used in this test. At first, the cell lines were cultured in RPMI‐1640 medium Pharmaceuticals 2022, 15, x. https://doi.org/10.3390/xxxxx. www.mdpi.com/journal/pharmaceuticals […]
(§10) Pharmaceuticals 2022, 15, x FOR PEER REVIEW 2 of 22 with 10% fetal bovine serum. Antibiotics (100 units/ml penicillin and100 μg/ml strepto‐ mycin) were added at 37 °C in a 5% CO2 incubator. The cell lines were seeded in a 96‐well plate at a density of 1.0 x 10^4 cells / well at 37 °C for 48 h under 5% CO2. After incubation, the cells were treated with different concentrations of the synthesized compounds and incubated for 24 h. After 24 h of drug treatment, 20 μl of MTT solution (5mg/ml) was added and incubated for 4 h. 100 μl of dimethyl sulfoxide (DMSO) was added into each well to dissolve the formed purple formazan. The colored solution was measured and recorded at an absorbance of 570 nm using a plate reader (EXL 800, USA). The relative cell viability was calculated in percentage as (A570 of treated samples/A570 of untreated sam‐ ple) X 100. The half maximal inhibitory concentration (IC50) values were presented using […]

[2] = test system: HepG2 cell line; experiment: MTT cytotoxicity assay, HepG2; type: cell-based, human; settings: mean ± SD of three experiments
Method: as §1, §2, §3, §4, §5, §6, §7, §8, §9, §10

[3] = biological target: VEGFR-2 (Homo sapiens, UniProt P35968); experiment: In vitro VEGFR-2 kinase inhibitory assay (VEGFR2 (KDR) Kinase Assay Kit)
Sequence of VEGFR-2 (P35968 20-1356): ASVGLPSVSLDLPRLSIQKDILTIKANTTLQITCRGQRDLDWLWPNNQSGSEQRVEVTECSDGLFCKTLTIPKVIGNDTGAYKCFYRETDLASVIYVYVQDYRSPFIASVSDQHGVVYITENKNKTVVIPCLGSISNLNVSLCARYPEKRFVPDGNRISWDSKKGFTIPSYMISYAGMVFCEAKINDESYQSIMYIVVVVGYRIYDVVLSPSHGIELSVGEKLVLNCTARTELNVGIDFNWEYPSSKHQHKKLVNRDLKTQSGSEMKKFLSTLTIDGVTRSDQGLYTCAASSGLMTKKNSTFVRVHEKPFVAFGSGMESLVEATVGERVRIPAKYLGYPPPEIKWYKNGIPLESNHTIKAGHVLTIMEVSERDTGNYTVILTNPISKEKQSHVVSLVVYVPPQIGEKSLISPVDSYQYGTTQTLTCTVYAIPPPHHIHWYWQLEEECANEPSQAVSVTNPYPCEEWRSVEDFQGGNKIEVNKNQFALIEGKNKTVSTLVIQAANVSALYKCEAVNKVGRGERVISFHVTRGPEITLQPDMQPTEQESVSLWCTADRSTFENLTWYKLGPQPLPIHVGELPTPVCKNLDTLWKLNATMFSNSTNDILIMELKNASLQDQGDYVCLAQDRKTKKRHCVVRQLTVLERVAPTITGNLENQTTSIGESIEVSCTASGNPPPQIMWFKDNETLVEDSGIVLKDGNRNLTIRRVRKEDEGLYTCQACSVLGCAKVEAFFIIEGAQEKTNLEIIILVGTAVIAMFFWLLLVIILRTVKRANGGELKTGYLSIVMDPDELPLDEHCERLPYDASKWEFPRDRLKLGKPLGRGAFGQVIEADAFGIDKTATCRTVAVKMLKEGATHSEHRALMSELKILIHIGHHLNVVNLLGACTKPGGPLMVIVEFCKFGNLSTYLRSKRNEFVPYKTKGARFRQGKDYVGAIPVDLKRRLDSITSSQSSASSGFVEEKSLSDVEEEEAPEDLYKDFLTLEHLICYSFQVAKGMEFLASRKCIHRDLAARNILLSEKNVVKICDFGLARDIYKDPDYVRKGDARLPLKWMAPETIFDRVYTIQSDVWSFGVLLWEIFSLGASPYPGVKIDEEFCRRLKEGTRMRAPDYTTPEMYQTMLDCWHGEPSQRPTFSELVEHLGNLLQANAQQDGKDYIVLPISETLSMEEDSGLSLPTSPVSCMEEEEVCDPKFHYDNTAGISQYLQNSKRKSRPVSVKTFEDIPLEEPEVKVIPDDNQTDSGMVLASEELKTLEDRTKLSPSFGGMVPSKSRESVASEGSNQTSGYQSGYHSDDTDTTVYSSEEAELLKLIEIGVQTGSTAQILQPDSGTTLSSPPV
Method: In vitro VEGFR‐2 kinase inhibitory assay
for their inhibitory activity against VEGFR‐2. Human BPS bioscience® VEGFR2 (KDR) Ki‐ nase Assay Kit (Enzyme‐Linked Immunosorbent Assay) was utilized in this test. The lu‐ minescent signal from the assay is correlated with the amount of ATP present and is in‐ versely correlated with the amount of kinase activity. The compounds were diluted to 100 μM in 10% DMSO and 5 ml of the diluted solution was added to a 50 ml reaction so that the final concentration of DMSO was 1% in all of reactions. All of the enzymatic reactions were conducted at 30 °C for 40 min. The 50 μl reaction mixture contains 40 μM Tris, pH 7.4, 10 μM MgCl2, 0.1 mg/ml BSA, 0.2 mg/ml Poly (Glu, Tyr) substrate, 10 μM ATP, and VEGFR‐2. After the enzymatic reaction, 50 ml of Kinase‐GloPlus Luminescence kinase as‐ say solution (Promega) was added to each reaction and the plate was incubated for 5 min at room temperature. Luminescence signal was measured using a BioTek Synergy 2 mi‐ croplate reader. The protein kinase assays used to determine IC50 values were performed using a ADP‐GloTM assay kit from Promega, which measures the generation of ADP by the protein kinase. Generation of ADP by the protein kinase reaction leads to an increase in luminescence signal in the presence of the ADP‐GloTM assay kit. The assay was started by incubating the reaction mixture in a 96‐well plate at 30 °C for 30 min. After the 30 mi n incubation period, the assay was terminated by the addition of 25 ml of ADP‐GloTM Re‐ agent (Promega). The 96‐well plate was shaken and then incubated for 40 min at ambient temperature; 50 ml of Kinase detection reagent was added, the 96‐well reaction plate wa s then read using the ADP‐Glo Luminescences Protocol on a GloMax plate reader (Promega: Catalog #E7031). The blank control was set up which included all the assay components, except the addition of appropriate substrates (replaced with equal volume of kinase assay buffer). The corrected activity for each protein kinase target was deter‐ mined by removing the blank control value. IC50 determination for inhibitor against VEGFR‐2 was estimated by generating a graph of log inhibitor vs normalized response with variables.

SMILES	melting point [°C]	IC50 [3] [µM]	fold more potent than sunitinib, VEGFR-2 inhibition ([3]; ratio of IC50 to sunitinib) [fold]	IC50 [1] [µM]	IC50 ([2]; Homo sapiens, HepG2, MTT assay) [µM]	fold more potent than sunitinib, MCF-7 [1] [fold]	IC50 ([2]; MTT assay) [µM]
O=C1Nc2ccccc2/C1=N/c1ccc(C(=O)O)cc1 [Compound 3a]	–	–	–	51.6 ± 2.5	62.4 ± 2.61	–	–
O=C1Nc2ccc(F)cc2/C1=N/c1ccc(C(=O)O)cc1 [Compound 3b]	–	–	–	43.9 ± 2.1	51.2 ± 2.5	–	–
CNC(=S)NNC(=O)c1ccc(N=C2C(=O)Nc3ccccc32)cc1 [Compound 5a, N-Methyl-2-(4-((2-oxoindolin-3-ylidene)amino)benzoyl)hydrazinecarbothioamide]	249 to 251	–	–	6.42 ± 0.55	5.48 ± 0.27	–	–
CNC(=S)NNC(=O)c1ccc(N=C2C(=O)Nc3ccc(F)cc32)cc1 [Compound 5b, 2-(4-((5-Fluoro-2-oxoindolin-3-ylidene)amino)benzoyl)-N-methylhydrazinecarbothioamide]	252 to 254	0.16 ± 0.008	–	0.99 ± 0.04	2.62 ± 0.13	5	–
CCOC(=O)c1ccc(/N=C2\C(=O)Nc3ccccc32)cc1 [Compound 7a]	–	–	–	14.9 ± 0.7	10.9 ± 0.53	–	–
CCOC(=O)c1ccc(/N=C2\C(=O)Nc3ccc(F)cc32)cc1 [Compound 7b]	–	–	–	3.81 ± 0.2	2.23 ± 0.11	–	–
NNC(=O)c1ccc(/N=C2\C(=O)Nc3ccccc32)cc1 [Compound 8a]	–	–	–	27.2 ± 1.3	24.9 ± 1.21	–	–
NNC(=O)c1ccc(/N=C2\C(=O)Nc3ccc(F)cc32)cc1 [Compound 8b]	–	–	–	40.7 ± 2.8	53.9 ± 2.63	–	–
O=C1Nc2ccccc2C1=Nc1ccc(C(=O)NN=Cc2ccc([N+](=O)[O-])cc2)cc1 [Compound 10a, N′-(4-Nitrobenzylidene)-4-((2-oxoindolin-3-ylidene)amino)benzohydrazide]	220 to 222	–	–	40 ± 2	8.24 ± 0.4	–	–
O=C1Nc2ccccc2C1=Nc1ccc(C(=O)NN=Cc2ccc(Cl)cc2)cc1 [Compound 10b, N′-(4-Chlorobenzylidene)-4-((2-oxoindolin-3-ylidene)amino)benzohydrazide]	237 to 239	–	–	23.8 ± 1.21	33.8 ± 1.65	–	–
O=C1Nc2ccccc2C1=Nc1ccc(C(=O)NN=Cc2cccc([N+](=O)[O-])c2)cc1 [Compound 10c, N′-(3-Nitrobenzylidene)-4-((2-oxoindolin-3-ylidene)amino)benzohydrazide]	200 to 201	–	–	14.6 ± 0.71	21 ± 1.02	–	–
Cc1ccc(C=NNC(=O)c2ccc(N=C3C(=O)Nc4ccccc43)cc2)cc1 [Compound 10d, N′-(4-Methylbenzylidene)-4-((2-oxoindolin-3-ylidene)amino)benzohydrazide]	234 to 236	–	–	13.7 ± 0.4	21.4 ± 1.05	–	–
COc1ccc(C=NNC(=O)c2ccc(N=C3C(=O)Nc4ccccc43)cc2)cc1 [Compound 10e, N′-(4-Methoxybenzylidene)-4-((2-oxoindolin-3-ylidene)amino)benzohydrazide]	239 to 240	0.358 ± 0.019	–	4.62 ± 0.2	8.81 ± 0.43	–	–
CN(C)c1ccc(C=NNC(=O)c2ccc(N=C3C(=O)Nc4ccc(F)cc43)cc2)cc1 [Compound 10f, N′-(4-(Dimethylamino)benzylidene)-4-((5-fluoro-2-oxoindolin-3-ylidene)amino)benzohydrazide]	202 to 204	–	–	11 ± 0.59	19.2 ± 0.94	–	–
O=C1Nc2ccc(F)cc2C1=Nc1ccc(C(=O)NN=Cc2ccc(Br)cc2)cc1 [Compound 10g, N′-(4-Bromobenzylidene)-4-((5-fluoro-2-oxoindolin-3-ylidene)amino)benzohydrazide]	227 to 229	0.087 ± 0.004	1.6	0.74 ± 0.03	2.79 ± 0.14	6	–
CCN(CC)CCNC(=O)c1c(C)[nH]c(/C=C2\C(=O)Nc3ccc(F)cc32)c1C [Sunitinib, reference compound]	–	–	–	4.77 ± 0.29	2.23 ± 0.11	–	–

Continued, in another order:

melting point [°C]	IC50 [3] [µM]	fold more potent than sunitinib, VEGFR-2 inhibition ([3]; ratio of IC50 to sunitinib) [fold]	SMILES	IC50 [1] [µM]	IC50 ([2]; Homo sapiens, HepG2, MTT assay) [µM]	fold more potent than sunitinib, MCF-7 [1] [fold]	IC50 ([2]; MTT assay) [µM]
187 to 189	–	–	O=C1Nc2ccccc2C1=Nc1ccc(C(=O)NN2C(=O)c3ccccc3C2=O)cc1 [Compound 12a, N-(1,3-Dioxoisoindolin-2-yl)-4-((2-oxoindolin-3-ylidene)amino)benzamide]	78.4 ± 3.81	130 ± 6.37	–	–
225 to 227	–	–	O=C1Nc2ccc(F)cc2C1=Nc1ccc(C(=O)NN2C(=O)c3ccccc3C2=O)cc1 [Compound 12b, N-(1,3-Dioxoisoindolin-2-yl)-4-((5-fluoro-2-oxoindolin-3-ylidene)amino)benzamide]	33.8 ± 1.7	23.5 ± 1.15	–	–
206 to 208	–	–	CCOC(=O)CC(C)=NNC(=O)c1ccc(N=C2C(=O)Nc3ccccc32)cc1 [Compound 14a, Ethyl 3-(2-(4-((2-oxoindolin-3-ylidene)amino)benzoyl)hydrazono)butanoate]	7.37 ± 0.4	10.3 ± 0.81	–	–
213 to 215	–	–	CCOC(=O)CC(C)=NNC(=O)c1ccc(N=C2C(=O)Nc3ccc(F)cc32)cc1 [Compound 14b, Ethyl 3-(2-(4-((5-Fluoro-2-oxoindolin-3-ylidene)amino)benzoyl)hydrazono)butanoate]	32.9 ± 1.61	13.8 ± 0.67	–	–
219 to 220	0.18 ± 0.009	–	O=C1Nc2ccccc2C1=Nc1ccc(-c2n[nH]c(=S)o2)cc1 [Compound 15a, 3-((4-(5-Thioxo-4,5-dihydro-1,3,4-oxadiazol-2-yl)phenyl)imino)indolin-2-one]	2.77 ± 0.1	2.3 ± 0.18	–	2.3 ± 0.18
231 to 233	–	–	O=C1Nc2ccc(F)cc2C1=Nc1ccc(-c2n[nH]c(=S)o2)cc1 [Compound 15b, 5-Fluoro-3-((4-(5-thioxo-4,5-dihydro-1,3,4-oxadiazol-2-yl)phenyl)imino)indolin-2-one]	19.6 ± 1.8	12.7 ± 0.62	–	–
203 to 205	–	–	O=C1Nc2ccc(F)cc2C1=Nc1ccc(C(=O)NNC(=S)Nc2ccccc2)cc1 [Compound 17b, 2-(4-((5-Fluoro-2-oxoindolin-3-ylidene)amino)benzoyl)-N-phenylhydrazinecarbothioamide]	25.8 ± 1.3	9.81 ± 0.48	–	–

Reference: article PMC9698773, “Design, Synthesis, Molecular Modeling, and Anticancer Evaluation of New VEGFR-2 Inhibitors Based on the Indolin-2-One Scaffold” (Pharmaceuticals, 2022)
